According to patent US4886806A, “Flavone-3-carboxylic acids compounds and pharmaceutical compositions containing them” (Kali-Chemie Pharma GmbH, priority 1987, dated 1989):

What was measured:
[1] = system: oxygen radical-forming activity of peritoneal exudate cells (PEC) of mice; test: Spontaneous CL and induced CL chemiluminescence test: inhibition of oxygen radical liberation from peritoneal exudate cells (30 min preincubation); type: cell-based; parameters: concentration or dose not given beside the values; details: for Inhibition in vitro of the oxygen radical liberation, Chemiluminescence Test % inhibition, Ind. CL: induced CL, after ZyC3b activation; for Inhibition in vitro of the oxygen radical liberation, Chemiluminescence Test % inhibition, Spnt. CL: spontaneous CL, before ZyC3b
Procedure: 1. To determine the inhibiting effect on the oxygen radical-forming activity of inflamed cells, the in vitro inhibition of the release of oxygen radicals from activated peritoneal exudate cells (=PEC) of mice was determined in the chemiluminescence (CL) test according to the method of Mueller-Peddinghaus (Int. J. Immunopharmac. 6, 455-466 (1984)). […] The intensity of the chemiluminescence is a measurement of the oxygen radical content in the suspension and thus the degree of activity of the inflamed cells. In this, three functionally different parameters are detected, the spontaneous CL, the induced CL and the peak CL. The spontaneous CL and the induced CL on the one hand and the peak CL on the other hand differ from each other because in the first two parameters the test substances are in contact with the cells for a 30 minute preincubation period before the inflammation irritant is added, whereas with the peak CL the cells are first stimulated, and the test substance is added at the peak of their activity. The measurement of the spontaneous CL thus detects the influence of the test substance on the relative rest activity of inflamed cells, the induced CL represents the effect of the test substances on the activatability of the cells and the inhibition of the peak CL indicates the effect of the test substances on the maximum activity of the inflamed cells. 1.1 Production of PEC suspension used in the test. In order to induce the PEC formation, female mice of 20-25 g body weight were each injected i.p. with 2 ml of a 3% solution of thioglycollate in sterile isotonic sodium chloride solution. Twenty four hours after the thioglycollate injection the cells, which predominantly consisted of polymorphonuclear leucocytes, were recovered by washing out of the abdominal cavity and washed twice. As cell culture medium there was added a commercially available solution under the designation RPMI 1640 (pH 7.2) (produced by Flow Laboratories, […], Germany), which contains 10% fetal calf serum (FCS, produced by Seromed GmbH, Munich, Germany) 18 μmol/l sodium bicarbonate and 2 μmol/l L-glutamine. The cell pellets of four animals each time were resuspended in cell culture medium, collected together and the suspension was made up to 2×10^6 cells per ml with cell culture medium. The cell suspensions were kept under ice cooling until their use the same day. 1.2 Production of the complement opsonized zymosan (=ZyC3 b) suspension used for activation. 200 mg zymosan (glycoprotein mixture isolated from the cell walls of brewer's yeast, Sacchomyces […], produced by Sigma Chemical Co., Munich, Germany) were suspended in 10 ml phosphate buffer solution according to Dulbecco (produced by Flow Laboratories, […], Germany), well stirred and heated for thirty minutes in a water bath to 100° C. After cooling, it was centrifuged for five minutes at 4° C. and at 600 ×g and the supernatant was discarded. The sediment was resuspended in 50 ml human serum and incubated for thirty minutes at 37° C. in a shaking water bath. Then it was centrifuged for five minutes at 600 ×g and 420 C., the supernatant decanted and the sediment washed with phosphate buffer solution. The working suspension of 8×10^-3 g ZyC3 b/ml was produced from the sediment by dilution with phosphate buffer solution (Mueller-Peddinghaus et al., Zbl. Vet. Med. B. 30, 559-575). 1.3 Chemiluminescence (CL) measurement (Peak-CL). […] At the end of this preincubation phase, 100 μl lucigenin were added, and in the course of the subsequent sixteen minute incubation phase the spontaneous CL parameter was determined with two measuring points. Then 100 μl ZyC3 b+100 μl phosphate buffer were added, and during the course of the subsequent twenty-four minute cell activation the induced CL parameter was measured with three measuring points. All measurements were determined twice. The parameters spontaneous CL and induced CL were determined on the same day with two separate cell pools.

[2] = system: oxygen radical-forming activity of activated peritoneal exudate cells (PEC) of mice; test: Peak chemiluminescence (CL) test: inhibition of oxygen radical liberation from activated peritoneal exudate cells; type: cell-based; details: Mus musculus, 10^-4 Mol substance/l, added at peak of cell activity, read-out: Inhibition in vitro of the oxygen radical liberation, Chemiluminescence Test % inhibition, Pk. CL
Procedure: 1. To determine the inhibiting effect on the oxygen radical-forming activity of inflamed cells, the in vitro inhibition of the release of oxygen radicals from activated peritoneal exudate cells (=PEC) of mice was determined in the chemiluminescence (CL) test according to the method of Mueller-Peddinghaus (Int. J. Immunopharmac. 6, 455-466 (1984)). […] The intensity of the chemiluminescence is a measurement of the oxygen radical content in the suspension and thus the degree of activity of the inflamed cells. In this, three functionally different parameters are detected, the spontaneous CL, the induced CL and the peak CL. The spontaneous CL and the induced CL on the one hand and the peak CL on the other hand differ from each other because in the first two parameters the test substances are in contact with the cells for a 30 minute preincubation period before the inflammation irritant is added, whereas with the peak CL the cells are first stimulated, and the test substance is added at the peak of their activity. The measurement of the spontaneous CL thus detects the influence of the test substance on the relative rest activity of inflamed cells, the induced CL represents the effect of the test substances on the activatability of the cells and the inhibition of the peak CL indicates the effect of the test substances on the maximum activity of the inflamed cells. 1.1 Production of PEC suspension used in the test. In order to induce the PEC formation, female mice of 20-25 g body weight were each injected i.p. with 2 ml of a 3% solution of thioglycollate in sterile isotonic sodium chloride solution. Twenty four hours after the thioglycollate injection the cells, which predominantly consisted of polymorphonuclear leucocytes, were recovered by washing out of the abdominal cavity and washed twice. As cell culture medium there was added a commercially available solution under the designation RPMI 1640 (pH 7.2) (produced by Flow Laboratories, […], Germany), which contains 10% fetal calf serum (FCS, produced by Seromed GmbH, Munich, Germany) 18 μmol/l sodium bicarbonate and 2 μmol/l L-glutamine. The cell pellets of four animals each time were resuspended in cell culture medium, collected together and the suspension was made up to 2×10^6 cells per ml with cell culture medium. The cell suspensions were kept under ice cooling until their use the same day. 1.2 Production of the complement opsonized zymosan (=ZyC3 b) suspension used for activation. 200 mg zymosan (glycoprotein mixture isolated from the cell walls of brewer's yeast, Sacchomyces […], produced by Sigma Chemical Co., Munich, Germany) were suspended in 10 ml phosphate buffer solution according to Dulbecco (produced by Flow Laboratories, […], Germany), well stirred and heated for thirty minutes in a water bath to 100° C. After cooling, it was centrifuged for five minutes at 4° C. and at 600 ×g and the supernatant was discarded. The sediment was resuspended in 50 ml human serum and incubated for thirty minutes at 37° C. in a shaking water bath. Then it was centrifuged for five minutes at 600 ×g and 420 C., the supernatant decanted and the sediment washed with phosphate buffer solution. The working suspension of 8×10^-3 g ZyC3 b/ml was produced from the sediment by dilution with phosphate buffer solution (Mueller-Peddinghaus et al., Zbl. Vet. Med. B. 30, 559-575). 1.3 Chemiluminescence (CL) measurement (Peak-CL). The PEC suspension was divided into samples of 100 μl each, placed in test tubes, and these were incubated for ten minutes at a temperature of 3720 C. in a measurement device (Chemiluminescence analyzer, Laboratorium Prof. Berthold, Wildbad, Germany). Then in order to amplify the chemiluminescence, 100 μl lucigenin solution was added (final concentration 1.54×10^-4 mol/l) and incubated for 16 more minutes. The cells were then activated by the addition of 100 μl of the ZyC3 b suspension produced as described in section 1.2 plus 100 μl phosphate buffer solution. […]

male mice = test: Determination of the minimum toxic dose; type: in vivo; details: max. dose 300 mg/kg, 24 h
Procedure: 3. Determination of the minimum toxic dose.
Male mice of 20 to 25 g weight were given maximal doses of 300 mg/kg of test substance per os. The animals were carefully watched over a period of three hours for toxicity symptoms. Over a period of twenty-four hours after administration, all symptoms and deaths were recorded. Associated symptoms were also watched and recorded. If death or strongly toxic symptoms were noted, further mice were given increasingly lower doses. The lowest dose which brought about death or strongly toxic symptoms was reported as the minimum toxic dose.

[3] = system: carrageenin foot edema in male Wistar rats; test: Inhibition of carrageenin foot edema in rats (Winter et al.); type: in vivo; details: Rattus norvegicus, 2 h after irritant
Procedure: A similar volume of isotonic sodium chloride solution was injected in the left hind foot. The volume of the each rat's foot was measured plethysmometrically both before and two hours after administration of the irritant, and the swelling of the foot volume after the carrageenin application was compared to the foot which was treated only with sodium chloride solution The inhibition of edema formation by the test substances in the treated animals was compared in percentage terms with the animals of the untreated control group.

Row | Compound | Inhibition in vitro of the oxygen radical liberation, Chemiluminescence Test % inhibition, Ind. CL [1] [%] | Inhibition in vitro of the oxygen radical liberation, Chemiluminescence Test % inhibition, Spnt. CL [1] [%] | inhibition at 100 µM (stock) [2] [%] | Minimal toxic dose mg/kg mouse p.o. (male mice) [mg/kg] | inhibition in vivo at 215 µmol/kg ([3]; ip, 215 μmol/kg i.p.) [%] | inhibition in vivo at 215 µmol/kg ([3]; po, 215 μmol/kg p.o.) [%]
1 | O=C(c1c(-c2ccccc2)oc2ccccc2c1=O)N1CC[N+]([O-])(Cc2ccccc2)CC1 [Example 5, 3-[(4-benzylpiperazin-1-yl)-carbonyl]-flavone N-oxide] | 25 | 49 | 12 | > 300 | – | –
2 | COc1cc(-c2oc3ccccc3c(=O)c2C(=O)NCCCCN2CCN(c3ccccn3)CC2)cc(OC)c1OC [Example 6b, 3',4',5'-Trimethoxy-3-{4-[4-(2-pyridyl)-piperazin-1-yl]-butylaminocarbonyl}flavone] | – | – | – | – | 75 | –
3 | O=C(c1c(-c2cc(O)c(O)c(O)c2)oc2ccccc2c1=O)N1CCN(c2ccccn2)CC1 [Example 10b, 3',4',5'-Trihydroxy-3-{[4-(2-pyridyl)-piperazin-1-yl]-carbonyl}flavone] | – | – | – | – | 35 | 30
4 | O=C(NC1CCN(Cc2ccccc2)CC1)c1c(-c2ccccc2)oc2ccccc2c1=O [Example 18b] | 50 | 30 | 41 | 300 | – | –
5 | O=C(NCCN1CCCC1)c1c(-c2ccccc2)oc2ccccc2c1=O [Example 20b] | 43 | 72 | 27 | 100 | – | –
6 | CCN(CC)CCNC(=O)c1c(-c2ccccc2)oc2ccccc2c1=O [Example 22b] | 43 | 67 | 25 | 300 | – | –
7 | O=C(NCCCCN1CCN(Cc2ccccc2)CC1)c1c(-c2ccccc2)oc2ccccc2c1=O [Example 23] | 88 | 95 | 63 | 300 | – | –
8 | COc1ccc(-c2oc3ccccc3c(=O)c2C(=O)N2CCN(C)CC2)cc1 [Example 28] | 29 | 54 | 5 | > 300 | – | –
9 | COc1cc(-c2oc3ccccc3c(=O)c2C(=O)NCCCN2CCOCC2)cc(OC)c1OC [Example 46] | 25 | 52 | 11 | > 300 | – | –
10 | COc1cc(-c2oc3ccccc3c(=O)c2C(=O)OCCN2CCN(c3ccccn3)CC2)cc(OC)c1OC [Example 47] | 76 | 78 | 70 | 100 | – | –
11 | COc1cc(-c2oc3ccccc3c(=O)c2C(=O)OCCN2CCCC2)cc(OC)c1OC [Example 49] | 64 | 86 | 41 | 300 | – | –
12 | CCC(=O)Oc1cc(-c2oc3ccccc3c(=O)c2C(=O)N2CCN(c3ccccn3)CC2)cc(OC(=O)CC)c1OC(=O)CC [Example 56] | 70 | 52 | 37 | – | – | –
